Reference: patent US5977063A, “Alkylated hexapeptides” (Eli Lilly and Company, priority 1998, dated 1999)

Tests used:
Assay type in all cases: cell-based
[1] = system: Enterococcus faecium and faecalis (RESISTANT); conditions: geometric mean of 4-6 isolates
Method: (§1) The antibacterial efficacy of the present compounds is illustrated by Table II. The minimal inhibitory concentrations (MICs) were determined using a standard broth micro-dilution assay.

[2] = system: Enterococcus faecium and faecalis (SENSITIVE); assay: MIC, standard broth micro-dilution assay, SENSITIVE enterococci; parameters: unit not given here; conditions: geometric mean of 4-6 isolates
Method: as §1

[3] = system: Staphylococcus aureus 446; assay: MIC, standard broth micro-dilution assay, SA 446; parameters: unit not given here
Method: as §1

[4] = system: Staphylococcus aureus 489; assay: MIC, standard broth micro-dilution assay, SA 489; parameters: unit not given here
Method: as §1

[5] = system: Staphylococcus aureus 447; assay: MIC, standard broth micro-dilution assay, SA 447; parameters: unit not given here
Method: as §1

[6] = system: Staphylococcus haemolyticus 105; assay: MIC, standard broth micro-dilution assay, SH 105; parameters: unit not given here
Method: as §1

[7] = system: Staphylococcus haemolyticus 415; assay: MIC, standard broth micro-dilution assay, SH 415; parameters: unit not given here
Method: as §1

[8] = system: Staphylococcus epidermidis 270; assay: MIC, standard broth micro-dilution assay, SE 270; parameters: unit not given here
Method: as §1

[9] = system: Streptococcus pyogenes C203; assay: MIC, standard broth micro-dilution assay, SPY C203; parameters: unit not given here
Method: as §1

[10] = system: Streptococcus pneumoniae P1; assay: MIC, standard broth micro-dilution assay, SPN P1; parameters: unit not given here
Method: as §1

SMILES	Minimal Inhibitory Concentration (MIC) RESISTANT [1]	Minimal Inhibitory Concentration (MIC) SENSITIVE [2]	Minimal Inhibitory Concentration (MIC) SA 446 [3]	Minimal Inhibitory Concentration (MIC) SA 489 [4]	Minimal Inhibitory Concentration (MIC) SA 447 [5]	Minimal Inhibitory Concentration (MIC) SH 105 [6]	Minimal Inhibitory Concentration (MIC) SH 415 [7]	Minimal Inhibitory Concentration (MIC) SE 270 [8]	Minimal Inhibitory Concentration (MIC) SPY C203 [9]	Minimal Inhibitory Concentration (MIC) SPN P1 [10]
C[C@@H]1O[C@@H](O[C@H]2[C@H](Oc3c4cc5cc3Oc3ccc(cc3Cl)[C@@H](O[C@H]3C[C@](C)(N)[C@@H](O)[C@H](C)O3)[C@@H]3NC(=O)[C@H](NC(=O)[C@@H]5NC(=O)[C@H](CC(N)=O)NC(=O)[C@H](NCCCCCCc5ccccc5)[C@H](O)c5ccc(c(Cl)c5)O4)c4ccc(O)c(c4)-c4c(O)cc(O)cc4[C@@H](C(=O)O)NC3=O)O[C@H](CO)[C@@H](O)[C@@H]2O)C[C@](C)(N)[C@H]1O [Example 14, N^1 -(6-PHENYL-n-HEXYL)DESLEUCYL-A82846B]	> 50	37	16	8	8	8	8	8	≤ .06	≤ .06
C[C@@H]1O[C@@H](O[C@@H]2c3ccc(c(Cl)c3)Oc3cc4cc(c3O[C@@H]3O[C@H](CO)[C@@H](O)[C@H](O)[C@H]3O[C@H]3C[C@](C)(NCCCCCCc5ccccc5)[C@@H](O)[C@H](C)O3)Oc3ccc(cc3Cl)[C@@H](O)[C@@H](NCCCCCCc3ccccc3)C(=O)N[C@@H](CC(N)=O)C(=O)N[C@H]4C(=O)N[C@H]3C(=O)N[C@@H]2C(=O)N[C@H](C(=O)O)c2cc(O)cc(O)c2-c2cc3ccc2O)C[C@](C)(N)[C@H]1O [Example 15, N^1,N^DISACC -BIS(6-PHENYL-n-HEXYL) -DESLEUCYL-A82846B]	8	6	4	2	2	1	2	2	0.125	0.5
C[C@@H]1O[C@@H](O[C@@H]2c3ccc(c(Cl)c3)Oc3cc4cc(c3O[C@@H]3O[C@H](CO)[C@@H](O)[C@H](O)[C@H]3O[C@H]3C[C@](C)(NCCCCCCCCCCc5ccccc5)[C@@H](O)[C@H](C)O3)Oc3ccc(cc3Cl)[C@@H](O)[C@@H](NCCCCCCCCCCc3ccccc3)C(=O)N[C@@H](CC(N)=O)C(=O)N[C@H]4C(=O)N[C@H]3C(=O)N[C@@H]2C(=O)N[C@H](C(=O)O)c2cc(O)cc(O)c2-c2cc3ccc2O)C[C@](C)(N)[C@H]1O [Example 16, N^1,N^DISACC -BIS(10 PHENYL-n-DECYL)-DESLEUCYL-A82846B]	> 128	> 11	> 64	64	> 64	> 64	> 64	> 64	8	16
C[C@@H]1O[C@@H](O[C@@H]2c3ccc(c(Cl)c3)Oc3cc4cc(c3O[C@@H]3O[C@H](CO)[C@@H](O)[C@H](O)[C@H]3O[C@H]3C[C@](C)(NCc5ccc(-c6ccccc6)cc5)[C@@H](O)[C@H](C)O3)Oc3ccc(cc3Cl)[C@@H](O)[C@@H](NCc3ccc(O)cc3)C(=O)N[C@@H](CC(N)=O)C(=O)N[C@H]4C(=O)N[C@H]3C(=O)N[C@@H]2C(=O)N[C@H](C(=O)O)c2cc(O)cc(O)c2-c2cc3ccc2O)C[C@](C)(N)[C@H]1O [Example 17, N^1 -(p-HYDROXYBENZYL)-N^DISACC -(p-PHENYLBENZYL)-DESLEUCYL-A82846B]	27	2.6	1	1	0.5	0.5	1	0.5	≤ .06	≤ .06
C[C@@H]1O[C@@H](O[C@H]2[C@H](Oc3c4cc5cc3Oc3ccc(cc3Cl)[C@@H](O[C@H]3C[C@](C)(N)[C@@H](O)[C@H](C)O3)[C@@H]3NC(=O)[C@H](NC(=O)[C@@H]5NC(=O)[C@H](CC(N)=O)NC(=O)[C@H](NCCCCCCCCCCc5ccccc5)[C@H](O)c5ccc(c(Cl)c5)O4)c4ccc(O)c(c4)-c4c(O)cc(O)cc4[C@@H](C(=O)O)NC3=O)O[C@H](CO)[C@@H](O)[C@@H]2O)C[C@](C)(N)[C@H]1O [Example 18, N^1 -(10-PHENYL-n-DECYL)DESLEUCYL-A82846B]	19	12	2	2	2	4	2	4	0.25	0.5
C[C@@H]1O[C@@H](O[C@H]2[C@H](Oc3c4cc5cc3Oc3ccc(cc3Cl)[C@@H](O[C@H]3C[C@](C)(N)[C@@H](O)[C@H](C)O3)[C@@H]3NC(=O)[C@H](NC(=O)[C@@H]5NC(=O)[C@H](CC(N)=O)NC(=O)[C@H](NCCCCCCCCc5ccccc5)[C@H](O)c5ccc(c(Cl)c5)O4)c4ccc(O)c(c4)-c4c(O)cc(O)cc4[C@@H](C(=O)O)NC3=O)O[C@H](CO)[C@@H](O)[C@@H]2O)C[C@](C)(N)[C@H]1O [Example 19, N^1 -(8-PHENYL-n-OCTYL)DESLEUCYL-A82846B]	45	254	2	1	1	2	2	4	0.5	0.5
C[C@@H]1O[C@@H](O[C@@H]2c3ccc(c(Cl)c3)Oc3cc4cc(c3O[C@@H]3O[C@H](CO)[C@@H](O)[C@H](O)[C@H]3O[C@H]3C[C@](C)(NCc5ccc(-c6ccccc6)cc5)[C@@H](O)[C@H](C)O3)Oc3ccc(cc3Cl)[C@@H](O)[C@@H](NCCCCCCc3ccccc3)C(=O)N[C@@H](CC(N)=O)C(=O)N[C@H]4C(=O)N[C@H]3C(=O)N[C@@H]2C(=O)N[C@H](C(=O)O)c2cc(O)cc(O)c2-c2cc3ccc2O)C[C@](C)(N)[C@H]1O [Example 20, N^1 -(6-PHENYL-n-HEXYL)-N^DISACC -(p-PHENYLBENZYL)-DESLEUCYL-A82846B]	64	11	4	4	4	1	1	1	≤ .06	≤ .06
C[C@@H]1O[C@@H](O[C@H]2[C@H](Oc3c4cc5cc3Oc3ccc(cc3Cl)[C@@H](O[C@H]3C[C@](C)(N)[C@@H](O)[C@H](C)O3)[C@@H]3NC(=O)[C@H](NC(=O)[C@@H]5NC(=O)[C@H](CC(N)=O)NC(=O)[C@H](NCc5ccc(OCCCc6ccccc6)cc5)[C@H](O)c5ccc(c(Cl)c5)O4)c4ccc(O)c(c4)-c4c(O)cc(O)cc4[C@@H](C(=O)O)NC3=O)O[C@H](CO)[C@@H](O)[C@@H]2O)C[C@](C)(N)[C@H]1O [Example 21, N^1 -(p-(3-PHENYL-n-PROPOXY)BENZYL)DESLEUCYL-A82846B]	> 128	32	4	4	4	4	8	4	≤ .06	≤ .06
C[C@@H]1O[C@@H](O[C@H]2[C@H](Oc3c4cc5cc3Oc3ccc(cc3Cl)[C@@H](O[C@H]3C[C@](C)(N)[C@@H](O)[C@H](C)O3)[C@@H]3NC(=O)[C@H](NC(=O)[C@@H]5NC(=O)[C@H](CC(N)=O)NC(=O)[C@H](NCc5ccc(-c6cc(C(F)(F)F)cc(C(F)(F)F)c6)cc5)[C@H](O)c5ccc(c(Cl)c5)O4)c4ccc(O)c(c4)-c4c(O)cc(O)cc4[C@@H](C(=O)O)NC3=O)O[C@H](CO)[C@@H](O)[C@@H]2O)C[C@](C)(N)[C@H]1O [Example 22, N^1 -(p-(3,5-BIS-(TRIFLUOROMETHYL)-PHENYL)BENZYL)-DESLEUCYL-A82846B]	9.5	4.6	2	1	2	1	2	2	≤ .06	≤ .06
